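The concentration for 50% growth inhibition is given as GI50. TGI is the concentration that stops growth completely.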
Legend:
Test in all cases: DTP human tumour cell line panel, 384-well format
TK-10 renal = test system: TK-10 renal
KM12 colon = test system: KM12 colon
SK-MEL-28 melanoma = test system: SK-MEL-28 melanoma
NCI-H460 NSCLC = test system: NCI-H460 NSCLC
SF-539 CNS = test system: SF-539 CNS
CCRF-CEM leukemia = test system: CCRF-CEM leukemia
HCT-15 colon = test system: HCT-15 colon
NCI-H226 lung = test system: NCI-H226 lung
786-0 renal = test system: 786-0 renal
ACHN renal = test system: ACHN renal
MALME-3M melanoma = test system: MALME-3M melanoma
CAKI-1 renal = test system: CAKI-1 renal
HOP-62 NSCLC = test system: HOP-62 NSCLC
IGROV1 ovarian = test system: IGROV1 ovarian
PC-3 prostate = test system: PC-3 prostate
T-47D breast = test system: T-47D breast
OVCAR-4 ovarian = test system: OVCAR-4 ovarian
EKVX NSCLC = test system: EKVX NSCLC
SF-295 CNS = test system: SF-295 CNS
HT29 colon = test system: HT29 colon
SF-268 CNS = test system: SF-268 CNS
SN12C renal = test system: SN12C renal
M14 melanoma = test system: M14 melanoma
NCI-H23 lung = test system: NCI-H23 lung
LOX IMVI melanoma = test system: LOX IMVI melanoma
A549 NSCLC = test system: A549 NSCLC
UACC-257 melanoma = test system: UACC-257 melanoma
A498 renal = test system: A498 renal
OVCAR-8 ovarian = test system: OVCAR-8 ovarian
OVCAR-5 ovarian = test system: OVCAR-5 ovarian
SK-MEL-5 melanoma = test system: SK-MEL-5 melanoma
MDA-MB-468 breast = test system: MDA-MB-468 breast
HCT-116 colon = test system: HCT-116 colon
HCC-2998 colon = test system: HCC-2998 colon
MCF7 breast = test system: MCF7 breast
SW-620 colon = test system: SW-620 colon
UO-31 renal = test system: UO-31 renal
U251 glioblastoma = test system: U251 glioblastoma
COLO 205 colon = test system: COLO 205 colon
MDA-MB-435 melanoma = test system: MDA-MB-435 melanoma
HL-60(TB) leukemia = test system: HL-60(TB) leukemia
NCI/ADR-RES ovarian = test system: NCI/ADR-RES ovarian
RXF 393 renal = test system: RXF 393 renal
SNB-75 CNS = test system: SNB-75 CNS
RPMI-8226 leukemia = test system: RPMI-8226 leukemia
UACC-62 melanoma = test system: UACC-62 melanoma
DU-145 prostate = test system: DU-145 prostate
OVCAR-3 ovarian = test system: OVCAR-3 ovarian
NCI-H322M lung = test system: NCI-H322M lung
SK-OV-3 ovarian = test system: SK-OV-3 ovarian
HOP-92 NSCLC = test system: HOP-92 NSCLC
HS 578T breast = test system: HS 578T breast
MDA-MB-231 breast = test system: MDA-MB-231 breast
SNB-19 CNS = test system: SNB-19 CNS
NCI-H522 lung = test system: NCI-H522 lung
SR leukemia = test system: SR leukemia
BT-549 breast = test system: BT-549 breast
MOLT-4 leukemia = test system: MOLT-4 leukemia

SMILES: Cc1cc(Nc2ncnc3ccc(NC4=NC(C)(C)CO4)cc23)ccc1Oc1ccn2ncnc2c1
- GI50 (TK-10 renal): 15.2 µM
- TGI (TK-10 renal): 36 µM
- GI50 (KM12 colon): 2.64 µM
- TGI (KM12 colon): > 55 µM
- GI50 (SK-MEL-28 melanoma): 8.21 µM
- TGI (SK-MEL-28 melanoma): 49.7 µM
- GI50 (NCI-H460 NSCLC): 4.32 µM
- TGI (NCI-H460 NSCLC): 9.09 µM
- GI50 (SF-539 CNS): 5.18 µM
- TGI (SF-539 CNS): 9.56 µM
- GI50 (CCRF-CEM leukemia): 22.9 µM
- TGI (CCRF-CEM leukemia): > 100 µM
- GI50 (HCT-15 colon): 9.08 µM
- TGI (HCT-15 colon): 25.4 µM
- GI50 (NCI-H226 lung): 12.5 µM
- TGI (NCI-H226 lung): > 43 µM
- GI50 (786-0 renal): 4.25 µM
- TGI (786-0 renal): 8.71 µM
- GI50 (ACHN renal): 12.6 µM
- TGI (ACHN renal): > 46.9 µM
- GI50 (MALME-3M melanoma): 2.29 µM
- TGI (MALME-3M melanoma): 7.05 µM
- GI50 (CAKI-1 renal): 4.23 µM
- TGI (CAKI-1 renal): 12.6 µM
- GI50 (HOP-62 NSCLC): 13.5 µM
- TGI (HOP-62 NSCLC): 28.7 µM
- GI50 (IGROV1 ovarian): 5 µM
- TGI (IGROV1 ovarian): > 40.4 µM
- GI50 (PC-3 prostate): 8.56 µM
- TGI (PC-3 prostate): > 53.8 µM
- GI50 (T-47D breast): 2.9 µM
- TGI (T-47D breast): 21.3 µM
- GI50 (OVCAR-4 ovarian): 10.3 µM
- TGI (OVCAR-4 ovarian): 22.6 µM
- GI50 (EKVX NSCLC): 23 µM
- TGI (EKVX NSCLC): > 46 µM
- GI50 (SF-295 CNS): 16.3 µM
- TGI (SF-295 CNS): 32.9 µM
- GI50 (HT29 colon): 29.9 µM
- TGI (HT29 colon): > 100 µM
- GI50 (SF-268 CNS): 6.32 µM
- TGI (SF-268 CNS): > 50.2 µM
- GI50 (SN12C renal): 5.84 µM
- TGI (SN12C renal): 20 µM
- GI50 (M14 melanoma): 11.4 µM
- TGI (M14 melanoma): > 57.2 µM
- GI50 (NCI-H23 lung): 25.1 µM
- TGI (NCI-H23 lung): > 53.1 µM
- GI50 (LOX IMVI melanoma): 14.6 µM
- TGI (LOX IMVI melanoma): 28.7 µM
- GI50 (A549 NSCLC): 14.6 µM
- TGI (A549 NSCLC): > 47.3 µM
- GI50 (UACC-257 melanoma): 20.2 µM
- TGI (UACC-257 melanoma): 44.6 µM
- GI50 (A498 renal): 4.69 µM
- TGI (A498 renal): 9.11 µM
- GI50 (OVCAR-8 ovarian): 14.3 µM
- TGI (OVCAR-8 ovarian): > 44.3 µM
- GI50 (OVCAR-5 ovarian): > 38.8 µM
- TGI (OVCAR-5 ovarian): > 58.1 µM
- GI50 (SK-MEL-5 melanoma): 12.3 µM
- TGI (SK-MEL-5 melanoma): 26.6 µM
- GI50 (MDA-MB-468 breast): 6.86 µM
- TGI (MDA-MB-468 breast): 19.1 µM
- GI50 (HCT-116 colon): 6.82 µM
- TGI (HCT-116 colon): 20.3 µM
- GI50 (HCC-2998 colon): 24.3 µM
- TGI (HCC-2998 colon): 98.8 µM
- GI50 (MCF7 breast): 18.3 µM
- TGI (MCF7 breast): > 48.2 µM
- GI50 (SW-620 colon): 6.12 µM
- TGI (SW-620 colon): > 57.8 µM
- GI50 (UO-31 renal): 3.27 µM
- TGI (UO-31 renal): 8.28 µM
- GI50 (U251 glioblastoma): 15.9 µM
- TGI (U251 glioblastoma): 36.1 µM
- GI50 (COLO 205 colon): > 40.9 µM
- TGI (COLO 205 colon): > 55.1 µM
- GI50 (MDA-MB-435 melanoma): 18.6 µM
- TGI (MDA-MB-435 melanoma): > 59.6 µM
- GI50 (HL-60(TB) leukemia): 5.59 µM
- TGI (HL-60(TB) leukemia): 10.3 µM
- GI50 (NCI/ADR-RES ovarian): 14.3 µM
- TGI (NCI/ADR-RES ovarian): 27.5 µM
- GI50 (RXF 393 renal): 7.33 µM
- TGI (RXF 393 renal): > 27.7 µM
- GI50 (SNB-75 CNS): 6.7 µM
- TGI (SNB-75 CNS): 13.8 µM
- GI50 (RPMI-8226 leukemia): 2.54 µM
- TGI (RPMI-8226 leukemia): 14.9 µM
- GI50 (UACC-62 melanoma): 5.05 µM
- TGI (UACC-62 melanoma): 10.3 µM
- GI50 (DU-145 prostate): 13.6 µM
- TGI (DU-145 prostate): 27.8 µM
- GI50 (OVCAR-3 ovarian): 4.71 µM
- TGI (OVCAR-3 ovarian): 10 µM
- GI50 (NCI-H322M lung): 5.09 µM
- TGI (NCI-H322M lung): > 43.6 µM
- GI50 (SK-OV-3 ovarian): 13 µM
- TGI (SK-OV-3 ovarian): > 46 µM
- GI50 (HOP-92 NSCLC): 4.48 µM
- TGI (HOP-92 NSCLC): 10.3 µM
- GI50 (HS 578T breast): 3.74 µM
- TGI (HS 578T breast): 8.79 µM
- GI50 (MDA-MB-231 breast): 13.6 µM
- TGI (MDA-MB-231 breast): 27.7 µM
- GI50 (SNB-19 CNS): 9.26 µM
- TGI (SNB-19 CNS): > 61.7 µM
- GI50 (NCI-H522 lung): 1.29 µM
- TGI (NCI-H522 lung): 23.7 µM
- GI50 (SR leukemia): 0.407 µM
- TGI (SR leukemia): 0.814 µM
- GI50 (BT-549 breast): 5.36 µM
- TGI (BT-549 breast): 10.7 µM
- GI50 (MOLT-4 leukemia): 1.93 µM
- TGI (MOLT-4 leukemia): 7.7 µM

SMILES: O=c1[nH]cnc2[nH]ncc12
- GI50 (CAKI-1 renal): 36.8 µM
- GI50 (NCI-H23 lung): 98.4 µM
- GI50 (MDA-MB-468 breast): 85.2 µM
- GI50 (HL-60(TB) leukemia): 74.5 µM
- GI50 (RPMI-8226 leukemia): 24 µM
- TGI (RPMI-8226 leukemia): 60.9 µM

From PubChem BioAssay (NCI)
